According to US20070048372A1, “Method for treating non-inflammatory osteoarthritic pain” (SRZ Properties, Inc., priority 2005, published 2007):
“Also recorded” adds a separate entry of the source.

How the values were obtained:
[1] = test system: monosodium iodoacetate-induced tactile allodynia; experiment: Monosodium iodoacetate-induced tactile allodynia (von Frey filaments); type: in vivo, rat (Wistar)
[2] = test system: biceps muscle grip strength after TNF-induced muscle pain; experiment: Biceps muscle grip strength after TNF-induced muscle pain; type: in vivo, rat (Sprague Dawley); conditions: for reversal of TNF-induced reduction of grip strength: 6 h after TNF i.m., 30 to 60 minutes after drug
Method: (§1) Adult male Sprague Dawley rats with a body weight of 250 g to 300 g were used (supplier: Charles River, Sulzfeld, Germany). Animals were group-housed (3 animals per cage) and maintained in a room with controlled temperature (21-22° C.) and a reversed light-dark cycle (12 h/12 h) with food and water available ad libitum. All experiments were approved by the Bavarian State animal experimentation committee and carried out in accordance with its regulations.
(§2) Recombinant rat tumor necrosis factor alpha (herein referred to as TNF) was obtained from R&D Systems, Minneapolis, Minn., U.S.A. TNF was diluted in 0.9% NaCl and used in a concentration of 1 μg in 50 μl. Injections were performed in short halothane narcosis with a 30 g needle bilaterally into the gastrocnemius or into the biceps brachii muscle. All rats were used to the behavioral tests before injections and baseline values were recorded over three test days.
Grip strength of the forelimbs was tested with a digital grip force meter (DFIS series, Chatillon, Greensboro, NC, U.S.A.). The rat was positioned to grab the grid with the forelimbs and was gently pulled so that the grip strength could be recorded. Means of three trials were calculated. The effect of the TNF treatment was calculated for each animal separately and only animals with a significant TNF effect were included for further analysis.
Rats were injected with TNF into the biceps brachii muscle at 8 am. Six hours later, grip strength of the forelimbs was tested with a digital grip force meter. Test drug was administered, and grip strength was again tested after 30 to 60 minutes.
(§3) The rats, initially 10 per group, were treated with either 3, 10 or 30 mg/kg lacosamide, 2 mg/kg metamizol, 30 or 100 mg/kg pregabalin, 100 mg/kg gabapentin, or the NaCl vehicle, i.p. (intraperitoneally). Volume of i.p. injections was 0.5 ml. A pilot study was performed to confirm that i.m. (intramuscular) injection of 1 μg TNF into the gastrocnemius muscle was sufficient to induce pressure hyperalgesia.
(§4) Data are shown in graphs displaying means and standard errors of the means (SEM). Pre- and post-treatment data were compared using ANOVA (analysis of variance) and a Tukey post hoc test. Means of treatment groups were compared using a one-way ANOVA and Dunnett's post hoc test. Maximal possible effects (MPE) were calculated for all types of treatment.

[3] = test system: rat formalin paw test (late phase); experiment: Rat formalin paw test (late phase): number of flinches and licking time; type: in vivo, rat (Rj: Wistar (Han))
Method: Rats were given an intraplantar injection of 5% formalin (50 μl) into the posterior left paw. This treatment induces a recognizable flinching and licking response of the affected paw in control animals. The number of flinches was counted for 15 minutes, beginning 20 minutes after injection of formalin. The time spent licking the affected paw was also recorded.
Male Rj: Wistar (Han) rats, 10 per group, weighing 100-130 g at the beginning of the experiments were studied per group. The test was performed blind.
Lacosamide (20 mg/kg), gabapentin (50 and 100 mg/kg), combinations of lacosamide (20 mg/kg) with gabapentin (50 and 100 mg/kg), and vehicle were administered i.p. 10 minutes before injection of formalin.
Lacosamide (10 and 20 mg/kg), morphine (2 and 4 mg/kg), combinations of lacosamide (10 and 20 mg/kg) with morphine (2 and 4 mg/kg), and vehicle were administered i.p. 10 minutes before injection of formalin.
Lacosamide (10 mg/kg), duloxetine (8 mg/kg), a combination of lacosamide (10 mg/kg) with duloxetine (8 mg/kg), and vehicle were administered i.p. 10 minutes before injection of formalin.
Lacosamide (10 and 20 mg/kg), memantine (4 and 8 mg/kg), combinations of lacosamide (10 and 20 mg/kg) with memantine (4 and 8 mg/kg), and vehicle were administered i.p. 10 minutes before injection of formalin.
Lacosamide (10 and 20 mg/kg), naproxen (8 and 16 mg/kg), combinations of lacosamide (10 and 20 mg/kg) with […] (8 and 16 mg/kg), and vehicle were administered i.p. 10 minutes before injection of formalin. Morphine (8 mg/kg) was included as a comparative treatment.

[4] = test system: monosodium iodoacetate-induced mechanical hyperalgesia; experiment: Monosodium iodoacetate-induced mechanical hyperalgesia (Randall-Selitto paw pressure); type: in vivo, rat (Wistar)
[5] = test system: muscle pressure hyperalgesia induced by TNF; experiment: TNF-induced muscle pressure hyperalgesia (Randall-Selitto, withdrawal threshold to muscle pressure); type: in vivo, rat (Sprague Dawley); conditions: for reversal of muscular mechanical hyperalgesia (withdrawal threshold to muscle pressure): 18 h after TNF i.m., 30 to 60 minutes after drug
Method: as §1, §2
Mechanical withdrawal thresholds to muscle pressure were measured with an analgesimeter (Ugo Basile, Comerio, Italy). The rat was allowed to crawl into a sock which helps the rat to relax. The hind limbs were positioned such that an increasing pressure could be applied onto the gastrocnemius muscle (maximum 250 g). The pressure needed to elicit withdrawal was recorded. Means of 3 trials for each hind limb were calculated (interstimulus interval of >30 sec). Only animals with a significant TNF effect were included for further analysis.
Rats were injected with TNF into the gastrocnemius muscle at 2 pm. Eighteen hours later, rats were tested for pressure hyperalgesia pre- and post-administration of the test drug. Rats were tested for pressure hyperalgesia 30 to 60 minutes after drug administration.
as §3, §4

SMILES: COC[C@@H](NC(C)=O)C(=O)NCc1ccccc1 [Lacosamide, (R)-2-acetamido-N-benzyl-3-methoxypropionamide]
- tactile allodynia of iodoacetate-treated rats (von Frey) ([1]; day 3, 30 mg/kg p.o., 60 minutes before test): improved tactile allodynia
- tactile allodynia of iodoacetate-treated rats (von Frey) ([1]; day 7, 30 mg/kg p.o., 60 minutes before test): improved tactile allodynia
- tactile allodynia of iodoacetate-treated rats (von Frey) ([1]; day 14, 30 mg/kg p.o., 60 minutes before test): not on day 14
- tactile allodynia of iodoacetate-treated rats (von Frey) ([1]; lower doses (3 and 10 mg/kg p.o.)): showed a trend for such improvement
- MPE (maximal possible effect) on biceps muscle grip strength, compared with vehicle ([2]; 10 mg/kg i.p.): significantly different from vehicle
- reversal of TNF-induced reduction of grip strength ([2]; 10 mg/kg i.p.): significant reversal; also recorded: reversed the effect of TNF on the muscle
- MPE (maximal possible effect) on biceps muscle grip strength, compared with vehicle ([2]; 30 mg/kg i.p.): significantly different from vehicle
- reversal of TNF-induced reduction of grip strength ([2]; 30 mg/kg i.p.): significant reversal
- Licking time % change (a) compared with vehicle control ([3]; Example 3, 20 mg/kg i.p. alone): −34% (a)
- Licking time (seconds) mean ± SEM ([3]; Example 3, 20 mg/kg i.p. alone): 146.9 ± 23.8 NS (a) seconds
- No. of flinches % change (a) compared with vehicle control ([3]; Example 3, 20 mg/kg i.p. alone): −33% (a)
- No. of flinches mean ± SEM ([3]; Example 3, 20 mg/kg i.p. alone): 85.7 ± 14.3 NS (a)
- decrease of the number of flinches as compared with vehicle controls ([3]; Example 3, 20 mg/kg i.p. alone): 33%
- decrease of the time spent licking as compared with vehicle controls ([3]; Example 3, 20 mg/kg i.p. alone): 34%
- Licking time % change (a) compared with vehicle control ([3]; Example 4, 10 mg/kg i.p. alone): −28% (a)
- Licking time (seconds) mean ± SEM ([3]; Example 4, 10 mg/kg i.p. alone): 210.1 ± 22.7 (a) seconds
- No. of flinches % change (a) compared with vehicle control ([3]; Example 4, 10 mg/kg i.p. alone): +22% (a)
- No. of flinches mean ± SEM ([3]; Example 4, 10 mg/kg i.p. alone): 182.7 ± 25.9 NS (a)
- decrease of the time spent licking as compared with vehicle controls ([3]; Example 4, 10 mg/kg i.p. alone): 28%
- increase of the number of flinches as compared with vehicle controls ([3]; Example 4, 10 mg/kg i.p. alone): 22%
- Licking time % change (a) compared with vehicle control ([3]; Example 4, 20 mg/kg i.p. alone): −56% (a)
- Licking time (seconds) mean ± SEM ([3]; Example 4, 20 mg/kg i.p. alone): 128.2 ± 28.0 (a) seconds
- No. of flinches % change (a) compared with vehicle control ([3]; Example 4, 20 mg/kg i.p. alone): −35% (a)
- No. of flinches mean ± SEM ([3]; Example 4, 20 mg/kg i.p. alone): 97.2 ± 16.0 NS (a)
- decrease of the number of flinches as compared with vehicle controls ([3]; Example 4, 20 mg/kg i.p. alone): 35%
- decrease of the time spent licking as compared with vehicle controls ([3]; Example 4, 20 mg/kg i.p. alone): 56%
- Licking time % change (a) compared with vehicle control ([3]; Example 5, 10 mg/kg i.p. alone): −30% (a)
- Licking time (seconds) mean ± SEM ([3]; Example 5, 10 mg/kg i.p. alone): 185.2 ± 31.7 NS (a) seconds
- No. of flinches % change (a) compared with vehicle control ([3]; Example 5, 10 mg/kg i.p. alone): +5% (a)
- No. of flinches mean ± SEM ([3]; Example 5, 10 mg/kg i.p. alone): 158.2 ± 15.6 NS (a)
- decrease of the time spent licking as compared with vehicle controls ([3]; Example 5, 10 mg/kg i.p. alone): 30%
- effects on the number of flinches and the time spent licking ([3]; Example 5, 10 mg/kg i.p. alone): had no significant effects
- Licking time % change (a) compared with vehicle control ([3]; Example 6, 10 mg/kg i.p. alone): −4% (a)
- Licking time (seconds) mean ± SEM ([3]; Example 6, 10 mg/kg i.p. alone): 168.5 ± 23.9 NS (a) seconds
- No. of flinches % change (a) compared with vehicle control ([3]; Example 6, 10 mg/kg i.p. alone): −31% (a)
- No. of flinches mean ± SEM ([3]; Example 6, 10 mg/kg i.p. alone): 113.9 ± 23.2 NS (a)
- decrease of the number of flinches as compared with vehicle controls ([3]; Example 6, 10 mg/kg i.p. alone): 31%
- effect on the time spent licking as compared with vehicle controls ([3]; Example 6, 10 mg/kg i.p. alone): had no clear effects
- Licking time % change (a) compared with vehicle control ([3]; Example 6, 20 mg/kg i.p. alone): −52% (a)
- Licking time (seconds) mean ± SEM ([3]; Example 6, 20 mg/kg i.p. alone): 85.1 ± 19.1 (a) seconds
- No. of flinches % change (a) compared with vehicle control ([3]; Example 6, 20 mg/kg i.p. alone): −48% (a)
- No. of flinches mean ± SEM ([3]; Example 6, 20 mg/kg i.p. alone): 85.8 ± 14.4 (a)
- decrease of the number of flinches as compared with vehicle controls ([3]; Example 6, 20 mg/kg i.p. alone): 48%
- decrease of the time spent licking as compared with vehicle controls ([3]; Example 6, 20 mg/kg i.p. alone): 52%
- Licking time % change (a) compared with vehicle control ([3]; Example 7, 10 mg/kg i.p. alone): −9% (a)
- Licking time (seconds) mean ± SEM ([3]; Example 7, 10 mg/kg i.p. alone): 174.7 ± 20.4 NS (a) seconds
- No. of flinches % change (a) compared with vehicle control ([3]; Example 7, 10 mg/kg i.p. alone): −13% (a)
- No. of flinches mean ± SEM ([3]; Example 7, 10 mg/kg i.p. alone): 99.2 ± 16.6 NS (a)
- effect on the time spent licking as compared with vehicle controls ([3]; Example 7, 10 mg/kg i.p. alone): had no clear effects
- Licking time % change (a) compared with vehicle control ([3]; Example 7, 20 mg/kg i.p. alone): −59% (a)
- Licking time (seconds) mean ± SEM ([3]; Example 7, 20 mg/kg i.p. alone): 78.9 ± 20.4 ***(a) seconds
- No. of flinches % change (a) compared with vehicle control ([3]; Example 7, 20 mg/kg i.p. alone): −12% (a)
- No. of flinches mean ± SEM ([3]; Example 7, 20 mg/kg i.p. alone): 100.3 ± 22.3 NS (a)
- decrease of the time spent licking as compared with vehicle controls ([3]; Example 7, 20 mg/kg i.p. alone): 59%
- effect on the number of flinches as compared with vehicle controls ([3]; Example 7, 10 and 20 mg/kg i.p. alone): did not clearly affect
- paw pressure withdrawal threshold compared to iodoacetate/vehicle treated animals (mechanical hyperalgesia) ([4]; day 3, 3 mg/kg p.o.): increase in paw pressure withdrawal threshold
- mechanical hyperalgesia (paw pressure withdrawal threshold) ([4]; day 7, 3 mg/kg p.o.): reduced mechanical hyperalgesia
- mechanical hyperalgesia (paw pressure withdrawal threshold) ([4]; day 7, 10 mg/kg p.o.): reduced mechanical hyperalgesia
- mechanical hyperalgesia (paw pressure withdrawal threshold) ([4]; day 7, 30 mg/kg p.o.): reduced mechanical hyperalgesia
- mechanical hyperalgesia (paw pressure withdrawal threshold) ([4]; day 14, 10 mg/kg p.o.): did not show a statistically significant effect
- mechanical hyperalgesia during the post-inflammatory period ([4]; p.o., overall conclusion): inhibited mechanical hyperalgesia
- MPE (maximal possible effect) on muscle pressure hyperalgesia, compared with vehicle ([5]; 10 mg/kg i.p.): significantly different from vehicle
- MPE (maximal possible effect) on muscle pressure hyperalgesia, compared with vehicle ([5]; 30 mg/kg i.p.): significantly different from vehicle
- reversal of muscular mechanical hyperalgesia (withdrawal threshold to muscle pressure) ([5]; 30 mg/kg i.p.): full reversal
- reversal of muscular mechanical hyperalgesia (withdrawal threshold to muscle pressure) ([5]; 30 mg/kg i.p., listed as lacosamide): complete reversal
- muscle hyperalgesia induced by TNF injection in the paw pressure test, dose dependence ([5]; 3, 10 and 30 mg/kg i.p.): dose-dependently improved
